Data from PMC5772529 (Scientific Reports, 2018).
Positions of bridges follow the written chain, without caps; N, C: chain ends. Residues, ends and D or L forms follow the SMILES beside them.

Columns and labels:
mice [1] = details: mouse, in vivo
mice [2] = details: mouse, in vivo; remark: listed apart in the source
Beagle dogs = details: dog, in vivo
mice [3] = details: mouse, in vivo; remark: listed apart in the source
rats = details: rat, in vivo

CSCC[C@@H]1NC(=O)[C@@H]2CSSC[C@H](NC(=O)CN)C(=O)N[C@@H](CSSC[C@@H](C(N)=O)NC(=O)[C@H](CC(C)C)NC(=O)[C@H](CC(N)=O)NC(=O)[C@@H]3CCCN3C(=O)[C@H](CC(N)=O)NC(=O)[C@H](CCCCN)NC(=O)[C@H](CC(C)C)NC1=O)C(=O)N[C@@H](CO)C(=O)N[C@@H](CC(N)=O)C(=O)N1CCC[C@H]1C(=O)N[C@@H](C)C(=O)N2 [Eu1.6] (H-GCCSNPACMLKNPNLC-NH2; disulfide 2-8, 3-16)
activity at KCNQ1 channels (KCNQ1): no activity
effect on mice motor function (mice [1]): did not show any significant effect
effects on mice spontaneous locomotor activity (mice [2]): no significant effects
effects on spontaneous locomotor activity (moving distance and activity time in 6 min) (mice [2]): no significant effects
effect on cardiac or respiratory function (Beagle dogs): did not show any significant effect
effect on the cardiac and respiratory function (Beagle dogs): no significant effect
morphine-like addictive symptoms (mice [3]): did not exhibit the morphine-like addictive symptoms
morphine-like dependence (naloxone-induced jumping number, weight loss) (mice [3]): did not produce morphine-like dependence
side-effects in acute tests of rats (rats): did not exhibit any significant side-effects
